Reference: the supplement of paper PMC8967900

Legend:
Assay in all cases: selective drug sensitivity score (sDSS, relative to normal bone marrow) (sDSS (score)); higher = more potent and effective on the cell line relative to normal bone marrow cells
Details in all cases: 72 h
ALL-SIL = test system: ALL-SIL
697 = test system: 697
380 = test system: 380
CCRF-CEM = test system: CCRF-CEM
COG-LL-317 = test system: COG-LL-317
KASUMI-9 = test system: KASUMI-9
TANOUE = test system: TANOUE
NALM-16 = test system: NALM-16
KARPAS-45 = test system: KARPAS-45
LC4-1 = test system: LC4-1
MOLT-4 = test system: MOLT-4
SEM cells = test system: SEM cells
MHH-CALL-3 = test system: MHH-CALL-3
MOLT-16 = test system: MOLT-16
SUP-B15 = test system: SUP-B15
RPMI-8402 = test system: RPMI-8402
RCH-ACV = test system: RCH-ACV
MOLT-14 = test system: MOLT-14
MHH-CALL-2 = test system: MHH-CALL-2
COG-LL-355h = test system: COG-LL-355h
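Also: ALL cell lines in 384-well plates, five doses spanning 10,000-fold, each plate scaled between vehicle and 100 µmol/L benzalkonium chloride controls, sDSS an adapted area-under-curve metric.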

| Compound | selective drug sensitivity score (ALL-SIL) | selective drug sensitivity score 697 | selective drug sensitivity score 380 | selective drug sensitivity score (CCRF-CEM) | selective drug sensitivity score (COG-LL-317) | selective drug sensitivity score (KASUMI-9) | selective drug sensitivity score (TANOUE) | selective drug sensitivity score (NALM-16) | selective drug sensitivity score (KARPAS-45) | selective drug sensitivity score (LC4-1) | selective drug sensitivity score (MOLT-4) | selective drug sensitivity score (SEM cells) | selective drug sensitivity score (MHH-CALL-3) | selective drug sensitivity score (MOLT-16) | selective drug sensitivity score (SUP-B15) | selective drug sensitivity score (RPMI-8402) | selective drug sensitivity score (RCH-ACV) | selective drug sensitivity score (MOLT-14) | selective drug sensitivity score (MHH-CALL-2) | selective drug sensitivity score (COG-LL-355h) |
| --- | --- | --- | --- | --- | --- | --- | --- | --- | --- | --- | --- | --- | --- | --- | --- | --- | --- | --- | --- | --- |
| CC1(C)C(C(=O)Nc2ccc(S(=O)(=O)c3ccc(NC(=O)C4C(C)(C)C4(C)C)cc3)cc2)C1(C)C [BRD7116] (top concentration 10000 nM) | -0.24 | 0.56 | -0.24 | 1.16 | -0.24 | 4.46 | -0.24 | 1.06 | -0.04 | 1.76 | 0.66 | -0.24 | -0.24 | 1.26 | -0.14 | 0.96 | -0.14 | 2.16 | 0.16 | -0.24 |
| CCCCCCCCc1ccc(CCC(N)(CO)CO)cc1 [Fingolimod] (top concentration 10000 nM) | 1.98 | -0.22 | -1.12 | 0.98 | 1.08 | 0.08 | 0.78 | -0.02 | -0.02 | 0.88 | 1.78 | 0.48 | -3.42 | 5.38 | 7.48 | -1.12 | 0.98 | 2.08 | 8.88 | 6.88 |
| CN1CCN(C(=O)c2ccc3cc(CCNc4ncnc5ccc(C#N)cc45)ccc3c2)CC1 [Senexin_B] (top concentration 1000 nM) | -0.6 | 2.1 | -0.6 | 1.7 | 0.5 | -0.6 | 1.1 | -0.6 | 1.4 | -0.6 | -0.6 | -0.6 | -0.1 | 1.8 | 2.8 | 1.1 | 2 | 2.1 | -0.1 | -0.6 |
| O=C(Nc1cnn2ccc(N3CCC[C@@H]3c3cc(F)ccc3F)nc12)N1CC[C@H](O)C1 [Larotrectinib] (top concentration 1000 nM) | -0.62 | -0.62 | -0.62 | -0.62 | -0.62 | 0.98 | -0.62 | -0.62 | -0.62 | 1.28 | -0.62 | -0.62 | -0.62 | -0.62 | 0.08 | -0.62 | 1.48 | -0.62 | -0.52 | 0.48 |
| O=C(O)CC1CC(c2ccccc2)=NO1 (stereo not given) [VGX-1027] (top concentration 10000 nM) | -0.04 | -0.04 | -0.04 | -0.04 | -0.04 | -0.04 | -0.04 | -0.04 | -0.04 | -0.04 | -0.04 | -0.04 | -0.04 | 0.16 | -0.04 | -0.04 | -0.04 | -0.04 | -0.04 | -0.04 |
| CCS(=O)(=O)Nc1ccc(Oc2ccc(F)cc2F)c(-c2cn(C)c(=O)c3[nH]ccc23)c1 [Mivebresib] (top concentration 10000 nM) | 1.7 | 16.5 | -13 | 1.5 | 11.5 | 17.4 | -12 | 0.5 | 14 | 8.9 | -3.5 | 16 | 17.2 | 13.1 | 7.8 | 4.6 | 18.1 | 2.7 | 14.8 | 6 |
| CCN1CCN(c2ccc(Nc3cc(N(C)C(=O)Nc4c(Cl)c(OC)cc(OC)c4Cl)ncn3)cc2)CC1 [Infigratinib] (top concentration 1000 nM) | 0 | 0 | 0 | 0 | 0 | 0 | 0 | 0 | 0 | 0 | 0 | 0 | 0 | 0 | 0 | 0 | 0 | 0 | 0 | 0 |
| CCc1c(C(=O)C(N)=O)c2c(OCC(=O)O)cccc2n1Cc1ccccc1 [Varespladib] (top concentration 10000 nM) | -0.84 | -0.84 | -0.84 | -0.84 | -0.74 | -0.84 | -0.84 | 0.56 | -0.84 | -0.84 | -0.84 | -0.84 | -0.84 | 1.76 | -0.84 | -0.84 | -0.84 | -0.84 | -0.84 | -0.84 |
| CC(C)C[C@H](NC(=O)[C@@H](COC(C)(C)C)NC(=O)[C@H](Cc1ccc(O)cc1)NC(=O)[C@H](CO)NC(=O)[C@H](Cc1c[nH]c2ccccc12)NC(=O)[C@H](Cc1cnc[nH]1)NC(=O)[C@@H]1CCC(=O)N1)C(=O)N[C@@H](CCCNC(=N)N)C(=O)N1CCC[C@H]1C(=O)NNC(N)=O [Goserelin] (top concentration 10000 nM) | -0.06 | -0.06 | -0.06 | -0.06 | -0.06 | -0.06 | -0.06 | -0.06 | -0.06 | -0.06 | -0.06 | -0.06 | -0.06 | 0.14 | -0.06 | -0.06 | -0.06 | -0.06 | -0.06 | -0.06 |
| CN1CCN(C2CCN(C(=O)Nc3cc(Oc4ccc(NC(=O)C5(C(=O)Nc6ccc(F)cc6)CC5)c(F)c4)ccn3)CC2)CC1 [Golvatinib] (top concentration 2500 nM) | 4.56 | 1.76 | -0.14 | -0.14 | -0.14 | 0.66 | -0.14 | -0.14 | 0.76 | 2.46 | -0.14 | 6.56 | -0.14 | -0.14 | 3.56 | 0.26 | 4.26 | -0.14 | 0.26 | -0.14 |
| O=C1NC(=O)[C@@H](c2cn3c4c(cccc24)CCC3)[C@@H]1c1c[nH]c2ccccc12 [Tivantinib] (top concentration 1000 nM) | 7.18 | 5.18 | 6.18 | 3.98 | 3.68 | 5.38 | -1.32 | 4.28 | 4.08 | 4.08 | 3.28 | 7.18 | 0.78 | 3.48 | 2.88 | 3.68 | 4.28 | 3.18 | 8.48 | 0.18 |
| Clc1ccccc1C(c1ccccc1)(c1ccccc1)n1cccn1 [TRAM-34] (top concentration 1000 nM) | -0.08 | -0.08 | -0.08 | -0.08 | -0.08 | 2.52 | -0.08 | -0.08 | -0.08 | -0.08 | -0.08 | -0.08 | -0.08 | -0.08 | -0.08 | -0.08 | -0.08 | -0.08 | 1.12 | -0.08 |
| COc1cc(CCc2cc(NC(=O)c3ccc(N4CC(C)NC(C)C4)cc3)n[nH]2)cc(OC)c1 (stereo not given) [AZD4547] (top concentration 1000 nM) | 0.56 | -0.04 | -0.14 | -0.14 | -0.14 | -0.14 | -0.14 | 0.56 | -0.14 | 0.66 | -0.14 | 0.36 | -0.14 | -0.14 | -0.14 | -0.14 | 3.46 | -0.14 | -0.14 | -0.14 |
| O=C(NOCCO)c1ccc2cncn2c1Nc1ccc(I)cc1F [GDC-0623] (top concentration 2500 nM) | -3.4 | -2.5 | -0.4 | -1 | -0.8 | -0.4 | -3.4 | 0.1 | -3.1 | -2.3 | -3.3 | -3.4 | 1.7 | -1.6 | -3 | -3.3 | -3.4 | -1.6 | 0.6 | -0.4 |
| Cc1c2oc3c(C)ccc(C(=O)N[C@@H]4C(=O)N[C@H](C(C)C)C(=O)N5CCC[C@H]5C(=O)N(C)CC(=O)N(C)[C@@H](C(C)C)C(=O)O[C@@H]4C)c3nc-2c(C(=O)N[C@@H]2C(=O)N[C@H](C(C)C)C(=O)N3CCC[C@H]3C(=O)N(C)CC(=O)N(C)[C@@H](C(C)C)C(=O)O[C@@H]2C)c(N)c1=O [Dactinomycin] (top concentration 1000 nM) | 8.04 | 19.2 | 17.2 | 7.04 | 20.7 | 19.4 | -11.2 | 5.24 | 8.44 | 17.5 | 17.3 | 11.3 | 15.7 | 18.8 | 20.7 | 1.54 | 18.5 | 16.9 | 12.4 | 8.54 |
| C[C@@H]1CCN(C(=O)CC#N)C[C@@H]1N(C)c1ncnc2[nH]ccc12 [Tofacitinib] (top concentration 5000 nM) | -7.86 | -6.86 | -7.86 | -7.86 | -7.86 | -7.86 | -7.86 | -7.86 | -7.86 | -7.86 | -7.86 | -7.86 | -7.86 | -7.86 | -7.86 | -7.86 | -7.86 | -7.66 | -7.86 | 0.44 |
| CC(O)c1cc(C(=O)N[C@@H](C)Cn2ccc(-c3ccc(C#N)c(Cl)c3)n2)n[nH]1 (stereo not given in full) [ODM-201] (top concentration 2500 nM) | 4.72 | 0.12 | -0.08 | 1.52 | 1.22 | -0.18 | 2.32 | -0.28 | 2.32 | 1.62 | -0.18 | -0.28 | 0.82 | 1.82 | 4.22 | 0.12 | 1.12 | 0.82 | 0.02 | 2.52 |
